Data as given in ChEMBL document CHEMBL5209571, “Membrane potential based assay for SLC13A3 using HEK-293 SLC13A3 OE cells” (2022).

Target: T1, Na(+)/dicarboxylate cotransporter 3 (Homo sapiens, UniProt Q8WWT9)
T1 sequence (Q8WWT9 whole entry): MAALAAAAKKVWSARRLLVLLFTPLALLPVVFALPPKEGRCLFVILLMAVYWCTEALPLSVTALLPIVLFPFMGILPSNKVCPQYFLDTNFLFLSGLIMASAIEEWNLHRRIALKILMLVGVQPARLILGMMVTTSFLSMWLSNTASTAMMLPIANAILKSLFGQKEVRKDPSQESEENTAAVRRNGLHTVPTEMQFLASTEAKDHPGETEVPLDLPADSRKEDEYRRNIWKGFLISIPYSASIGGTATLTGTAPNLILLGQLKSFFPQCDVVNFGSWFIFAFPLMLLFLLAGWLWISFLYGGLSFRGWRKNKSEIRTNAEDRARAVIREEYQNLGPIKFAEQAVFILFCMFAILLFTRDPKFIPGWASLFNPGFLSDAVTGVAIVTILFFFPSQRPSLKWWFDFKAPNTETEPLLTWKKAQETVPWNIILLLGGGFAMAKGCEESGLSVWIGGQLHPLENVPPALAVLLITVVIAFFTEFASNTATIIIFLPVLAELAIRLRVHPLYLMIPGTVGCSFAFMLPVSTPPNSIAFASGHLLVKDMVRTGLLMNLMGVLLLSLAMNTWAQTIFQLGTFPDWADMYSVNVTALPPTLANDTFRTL
Experiment: Substrate uptake by the Na(+)/Dicarboxylate Cotransporter 3 (NADC3, SLC13A3) as assessed by the fluorescent FLIPR membrane potential dye in HEK-293 JumpIN-SLC13A3 cells (PubChem AID: 1794820)
Assay type: functional, cell-based, HEK293

Structure (SMILES) | EC50 [µM]
O=C(O)CCC(=O)C(=O)O [ALPHA-KETOGLUTARIC ACID] | 54
O=C(O)CCC(=O)O [SUCCINIC ACID] | 107
